Results taken from patent US20240246968A1, “SMALL MOLECULE INHIBITORS OF KRAS G12C MUTANT” (Merck Sharp & Dohme LLC, priority 2021, published 2024).

Assays:
[1] = target: Gppcp-bound recombinant K-Ras4B G12C mutant protein (amino acids 1-169, C51S/C80L/C118S) (Homo sapiens, UniProt P01116, C118S/C51S/C80L/G12C); experiment: KRASG12C binding assay (LC-MS, compound binding rate); conditions: test compound final concentration 0.5 μM, 25° C., 1 hour
Summary of the method: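 Covalent adduct formation measured by deconvoluted intact-mass LC-MS after 1 h at 25 °C with compound at 0.5 μM final and 50 nM Gppcp-loaded KRAS G12C (residues 1-169, C51S/C80L/C118S). Buffer: TBS, 0.1 mM TCEP, 0.25 mM MgCl2, 50 μM Gppcp. Binding % = one-molecule adduct/(unbound + all adducts), binned A ≥80, B 60–80, C 40–60, D 20–40, E <20.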

[2] = target: T1, interaction between recombinant K-Ras4B G12C mutant protein and cRAF RAS-binding domain (cRAF-RBD) (Homo sapiens, UniProt P01116, G12C); experiment: Inhibitory activity on interaction between KRAS G12C and cRAF (Alpha technology); assay type: biochemical; conditions: GMPPNP-bound KRAS G12C incubated with compound at 25° C. for 1 hour, then cRAF-RBD; Alpha signal
T1 construct: made in house; host or cells: E. coli
Summary of the method: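 Alpha readout of cRAF-RBD (aa 50-132) binding to KRAS G12C (aa 1-169) after 1.5 h RT, following 1 h, 25° C compound preincubation with GMPPNP-bound protein (pH 7.5 Tris, 1 mM MgCl2, TCEP, Tween 20). IC50 fitted from titrations, with GDP-bound KRAS as 100% and DMSO as 0% inhibition.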

[3] = system: MIA PaCa-2 cells; experiment: Growth inhibition activity on KRAS-G12C mutant cell line (MIA PaCa-2), CellTiter-Glo 3D; assay type: cell-based, human; conditions: MIA PaCa-2, 3-day culture with compound
Summary of the method: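 Luminescence readout (CellTiter-Glo 3D) after 3 days of compound treatment at 37 °C, 5% CO2, 0.2% final DMSO, gave % growth inhibition versus no-compound wells, from which IC50 (nM) was derived; cells had been plated in 10% FBS RPMI1640 one day before dosing.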

Row | IC50 [2] | IC50 [3] | Structure (SMILES) | binding rate [1]
1 | 1600 nM | 1600 nM | COc1c(-c2cccn3c(C(=O)c4cc(F)c(NC(=O)/C=C/CN[C@H]5CC[C@H](OC)CC5)c(F)c4)ccc23)c(C(F)(F)F)cc2c1nc(C)n2C (single isomer, unassigned) [Example 60-1, (E)-N-(2,6-difluoro-4-(8-(4-methoxy-1,2-dimethyl-6-(trifluoromethyl)-1H-benzo[d]imidazol-5-yl)indolizine-3-carbonyl)phenyl)-4-(((1r,4r)-4-methoxycyclohexyl)amino)but-2-enamide] | A (A binding rate of 80% or more is rated “A”)
2 | 26 nM | 15 nM | COc1c(-c2cccn3c(C(=O)c4cc(F)c(NC(=O)/C=C/CN[C@H]5CC[C@H](OC)CC5)c(F)c4)ccc23)c(C(F)(F)F)cc2c1nc(C)n2C (single isomer, unassigned) [Example 60-2, (E)-N-(2,6-difluoro-4-(8-(4-methoxy-1,2-dimethyl-6-(trifluoromethyl)-1H-benzo[d]imidazol-5-yl)indolizine-3-carbonyl)phenyl)-4-(((1r,4r)-4-methoxycyclohexyl)amino)but-2-enamide] | A (A binding rate of 80% or more is rated “A”)
3 | 1900 nM | 2300 nM | COc1c(-c2cccn3c(C(=O)c4cc(F)c(NC(=O)/C=C/CNC5CCOCC5)c(F)c4)ccc23)c(C(F)(F)F)cc2c1nc(C)n2C (single isomer, unassigned) [Example 61-1, (E)-N-(2,6-difluoro-4-(8-(4-methoxy-1,2-dimethyl-6-(trifluoromethyl)-1H-benzo[d]imidazol-5-yl)indolizine-3-carbonyl)phenyl)-4-((tetrahydro-2H-pyran-4-yl)amino)but-2-enamide] | B (a binding rate of 60% or more and less than 80% is rated “B”)
4 | 28 nM | 10 nM | COc1c(-c2cccn3c(C(=O)c4cc(F)c(NC(=O)/C=C/CNC5CCOCC5)c(F)c4)ccc23)c(C(F)(F)F)cc2c1nc(C)n2C (single isomer, unassigned) [Example 61-2, (E)-N-(2,6-difluoro-4-(8-(4-methoxy-1,2-dimethyl-6-(trifluoromethyl)-1H-benzo[d]imidazol-5-yl)indolizine-3-carbonyl)phenyl)-4-((tetrahydro-2H-pyran-4-yl)amino)but-2-enamide] | A (A binding rate of 80% or more is rated “A”)
5 | 43 nM | 130 nM | CO[C@H]1CC[C@H](NC/C=C/C(=O)Nc2c(F)cc(C(=O)c3ccc4c(-c5c(C(C)C)cc6c(nc(C)n6C)c5Cl)cccn34)cc2F)CC1 (single isomer, unassigned) [Example 71-1, (E)-N-(4-(8-(4-chloro-6-isopropyl-1,2-dimethyl-1H-benzo[d]imidazol-5-yl)indolizine-3-carbonyl)-2,6-difluorophenyl)-4-(((1r,4r)-4-methoxycyclohexyl)amino)but-2-enamide] | A (A binding rate of 80% or more is rated “A”)
6 | 220 nM | 570 nM | CO[C@H]1CC[C@H](NC/C=C/C(=O)Nc2c(F)cc(C(=O)c3ccc4c(-c5c(C(C)C)cc6c(nc(C)n6C)c5Cl)cccn34)cc2F)CC1 (single isomer, unassigned) [Example 71-2, (E)-N-(4-(8-(4-chloro-6-isopropyl-1,2-dimethyl-1H-benzo[d]imidazol-5-yl)indolizine-3-carbonyl)-2,6-difluorophenyl)-4-(((1r,4r)-4-methoxycyclohexyl)amino)but-2-enamide] | A (A binding rate of 80% or more is rated “A”)
7 | 16 nM | 16 nM | COc1c(-c2cccn3c(C(=O)c4cc(F)c(NC(=O)/C=C/CN[C@H]5CC[C@H](OC)CC5)c(F)c4)cnc23)c(C(F)(F)F)cc2c1nc(C)n2C (single isomer, unassigned) [Example 83-1, (E)-N-(2,6-difluoro-4-(8-(4-methoxy-1,2-dimethyl-6-(trifluoromethyl)-1H-benzo[d]imidazol-5-yl)imidazo[1,2-a]pyridine-3-carbonyl)phenyl)-4-(((1r,4r)-4-methoxycyclohexyl)amino)but-2-enamide] | A (A binding rate of 80% or more is rated “A”)
8 | 920 nM | 850 nM | COc1c(-c2cccn3c(C(=O)c4cc(F)c(NC(=O)/C=C/CN[C@H]5CC[C@H](OC)CC5)c(F)c4)cnc23)c(C(F)(F)F)cc2c1nc(C)n2C (single isomer, unassigned) [Example 83-2, (E)-N-(2,6-difluoro-4-(8-(4-methoxy-1,2-dimethyl-6-(trifluoromethyl)-1H-benzo[d]imidazol-5-yl)imidazo[1,2-a]pyridine-3-carbonyl)phenyl)-4-(((1r,4r)-4-methoxycyclohexyl)amino)but-2-enamide] | B (a binding rate of 60% or more and less than 80% is rated “B”)
9 | 57.2 nM | 20.1 nM | CCc1nc2c(-c3c(C(F)(F)F)cc4c(nc(C)n4C)c3OC)cccn2c1C(=O)c1cc(F)c(NC(=O)/C=C/CN[C@H]2CC[C@H](OC)CC2)c(F)c1 (single isomer, unassigned) [Example 102-1, (E)-N-(4-(2-ethyl-8-(4-methoxy-1,2-dimethyl-6-(trifluoromethyl)-1H-benzo[d]imidazol-5-yl)imidazo[1,2-a]pyridine-3-carbonyl)-2,6-difluorophenyl)-4-(((1r,4r)-4-methoxycyclohexyl)amino)but-2-enamide] | A (A binding rate of 80% or more is rated “A”)
10 | 2440 nM | 1460 nM | CCc1nc2c(-c3c(C(F)(F)F)cc4c(nc(C)n4C)c3OC)cccn2c1C(=O)c1cc(F)c(NC(=O)/C=C/CN[C@H]2CC[C@H](OC)CC2)c(F)c1 (single isomer, unassigned) [Example 102-2, (E)-N-(4-(2-ethyl-8-(4-methoxy-1,2-dimethyl-6-(trifluoromethyl)-1H-benzo[d]imidazol-5-yl)imidazo[1,2-a]pyridine-3-carbonyl)-2,6-difluorophenyl)-4-(((1r,4r)-4-methoxycyclohexyl)amino)but-2-enamide] | C (a binding rate of 40% or more and less than 60% is rated “C”)
11 | 29.8 nM | 23.1 nM | COc1c(-c2cccn3c(C(=O)c4cc(F)c(NC(=O)/C=C/CNC5(C)CC5)c(F)c4)cnc23)c(C(F)(F)F)cc2c1nc(C)n2C (single isomer, unassigned) [Example 105-1, (E)-N-(2,6-difluoro-4-(8-(4-methoxy-1,2-dimethyl-6-(trifluoromethyl)-1H-benzo[d]imidazol-5-yl)imidazo[1,2-a]pyridine-3-carbonyl)phenyl)-4-((1-methylcyclopropyl)amino)but-2-enamide] | A (A binding rate of 80% or more is rated “A”)
12 | 1450 nM | 943 nM | COc1c(-c2cccn3c(C(=O)c4cc(F)c(NC(=O)/C=C/CNC5(C)CC5)c(F)c4)cnc23)c(C(F)(F)F)cc2c1nc(C)n2C (single isomer, unassigned) [Example 105-2, (E)-N-(2,6-difluoro-4-(8-(4-methoxy-1,2-dimethyl-6-(trifluoromethyl)-1H-benzo[d]imidazol-5-yl)imidazo[1,2-a]pyridine-3-carbonyl)phenyl)-4-((1-methylcyclopropyl)amino)but-2-enamide] | C (a binding rate of 40% or more and less than 60% is rated “C”)
